Experimental data from patent US10421740B2, “Pesticidally active heterocyclic derivatives with sulphur containing substituents” (SYNGENTA PARTICIPATIONS AG, priority 2016, dated 2019).

Legend:
[1] = tested on: Diabrotica balteata (Corn Root Worm); assay: Activity against Diabrotica balteata (corn root worm); format: in vivo; settings: 96 h, application rate 200 ppm, maize sprouts, L2 larvae, 4 days after infestation, read-out: effect in at least one of the two categories (mortality or growth inhibition)
Procedure: Example B2: Activity Against Diabrotica balteata (Corn Root Worm)
Maize sprouts placed onto an agar layer in 24-well microtiter plates were treated with aqueous test solutions prepared from 10'000 ppm DMSO stock solutions by spraying. After drying, the plates were infested with L2 larvae (6 to 10 per well). The samples were assessed for mortality and growth inhibition in comparison to untreated samples 4 days after infestation.

[2] = tested on: Myzus persicae (Green Peach Aphid); assay: Activity against Myzus persicae (green peach aphid): feeding/contact activity; format: in vivo; settings: foliar, 144 h, application rate 200 ppm, sunflower leaf discs, aphid population of mixed ages, 6 days after infestation
Procedure: Example B3: Activity Against Myzus persicae (Green Peach Aphid): Feeding/Contact Activity
Sunflower leaf discs were placed onto agar in a 24-well microtiter plate and sprayed with aqueous test solutions prepared from 10'000 ppm DMSO stock solutions. After drying, the leaf discs were infested with an aphid population of mixed ages. The samples were assessed for mortality 6 days after infestation.

[3] = tested on: Myzus persicae (Green Peach Aphid); assay: Activity against Myzus persicae (green peach aphid): systemic activity; format: in vivo; settings: 144 h, test rate 24 ppm, roots of pea seedlings in test solution, 6 days
Procedure: Example B4: Activity Against Myzus persicae (Green Peach Aphid): Systemic Activity
Roots of pea seedlings infested with an aphid population of mixed ages were placed directly into aqueous test solutions prepared from 10'000 DMSO stock solutions. The samples were assessed for mortality 6 days after placing seedlings into test solutions.

[4] = tested on: Plutella xylostella (Diamond Back Moth); assay: Activity against Plutella xylostella (diamond back moth); format: in vivo; settings: 120 h, application rate 200 ppm, artificial diet, L2 larvae, 5 days after infestation, read-out: effect in at least one of the two categories (mortality or growth inhibition)
Procedure: Example B5: Activity Against Plutella xylostella (Diamond Back Moth)
24-well microtiter plates with artificial diet were treated with aqueous test solutions prepared from 10'000 ppm DMSO stock solutions by pipetting. After drying, the plates were infested with L2 larvae (10 to 15 per well). The samples were assessed for mortality and growth inhibition in comparison to untreated samples 5 days after infestation.

[5] = tested on: Spodoptera littoralis (Egyptian Cotton Leaf Worm); assay: Activity against Spodoptera littoralis (Egyptian cotton leaf worm), cotton leaf disc spray; format: in vivo; settings: foliar, 72 h, application rate 200 ppm, cotton leaf discs, L1 larvae, 3 days after infestation
Procedure: Example B8: Activity Against Spodoptera littoralis (Egyptian Cotton Leaf Worm)
Cotton leaf discs were placed onto agar in 24-well microtiter plates and sprayed with aqueous test solutions prepared from 10'000 ppm DMSO stock solutions. After drying the leaf discs were infested with five L1 larvae. The samples were assessed for mortality, anti-feeding effect, and growth inhibition in comparison to untreated samples 3 days after infestation. Control of Spodoptera littoralis by a test sample is given when at least one of the categories mortality, anti-feedant effect, and growth inhibition is higher than the untreated sample.

[6] = tested on: Euschistus heros (Neotropical Brown Stink Bug); assay: Activity against Euschistus heros (neotropical brown stink bug); format: in vivo; settings: 120 h, application rate 200 ppm, soybean leaves, N2 nymphs, 5 days after infestation, read-out: effect in at least one of the two categories (mortality or growth inhibition)
Procedure: Example B9: Activity Against Euschistus heros (Neotropical Brown Stink Bug)
Soybean leaves on agar in 24-well microtiter plates were sprayed with aqueous test solutions prepared from 10'000 ppm DMSO stock solutions. After drying the leaves were infested with N2 nymphs. The samples were assessed for mortality and growth inhibition in comparison to untreated samples 5 days after infestation.

[7] = tested on: Bemisia tabaci (Cotton White Fly); assay: Activity against Bemisia tabaci (cotton white fly): feeding/contact activity; format: in vivo; settings: foliar, 144 h, application rate 200 ppm, cotton leaf discs, adult white flies, 6 days after incubation
Procedure: Example B1: Activity Against Bemisia tabaci (Cotton White Fly): Feeding/Contact Activity
Cotton leaf discs were placed on agar in 24-well microtiter plates and sprayed with aqueous test solutions prepared from 10'000 ppm DMSO stock solutions. After drying the leaf discs were infested with adult white flies. The samples were checked for mortality 6 days after incubation.

Row | melting point [°C] | Structure (SMILES) | percent effect (mortality or growth inhibition) at 200 ppm [1] [%] | mortality at 200 ppm [2] [%] | mortality at 24 ppm [3] [%] | percent control (mortality or growth inhibition) at 200 ppm [4] [%] | percent control (mortality, anti-feedant effect or growth inhibition) at 200 ppm [5] [%] | effect (mortality or growth inhibition) at 200 ppm [6] [%] | mortality at 200 ppm [7] [%]
1 |  | CCS(=O)(=O)c1cc2ccccc2nc1-c1nnc(-c2cc(C(F)(F)F)ccn2)n1C [Compound A3, 3-ethylsulfonyl-2-[4-methyl-5-[4-(trifluoromethyl)-2-pyridyl]-1,2,4-triazol-3-yl]quinoline] | ≥ 80 | ≥ 80 | ≥ 80 | ≥ 80 | ≥ 80 |  | 
2 |  | CCS(=O)(=O)c1cc2ccccc2nc1-c1nnc(-c2cc(C(F)(F)F)ncn2)n1C [Compound A4, 3-ethylsulfonyl-2-[4-methyl-5-[6-(trifluoromethyl)pyrimidin-4-yl]-1,2,4-triazol-3-yl]quinoline] | ≥ 80 | ≥ 80 |  | ≥ 80 |  |  | 
3 |  | CCS(=O)(=O)c1cc2c(cc1-c1nnc(-c3ccc(C(F)(F)F)nc3)n1C)nc(C(F)(F)F)n2C [Compound A5, 6-ethylsulfonyl-1-methyl-5-[4-methyl-5-[6-(trifluoromethyl)-3-pyridyl]-1,2,4-triazol-3-yl]-2-(trifluoromethyl)benzimidazole] |  | ≥ 80 | ≥ 80 |  | ≥ 80 | ≥ 80 | 
4 |  | CCS(=O)(=O)c1cc2nc(C(F)(F)F)sc2cc1-c1nnc(-c2cc(C(F)(F)F)ccn2)n1C [Compound A6, 5-ethylsulfonyl-6-[4-methyl-5-[4-(trifluoromethyl)-2-pyridyl]-1,2,4-triazol-3-yl]-2-(trifluoromethyl)-1,3-benzothiazole] | ≥ 80 |  |  | ≥ 80 | ≥ 80 |  | ≥ 80
5 |  | CCSc1cc2sc(C(F)(F)F)nc2cc1-c1nnc(-c2cc(C(F)(F)F)ccn2)n1C [Compound A7, 6-ethylsulfanyl-5-[4-methyl-5-[4-(trifluoromethyl)-2-pyridyl]-1,2,4-triazol-3-yl]-2-(trifluoromethyl)-1,3-benzothiazole] | ≥ 80 |  |  |  | ≥ 80 |  | 
6 |  | CCS(=O)(=O)c1cc2c(nnn2C)nc1-c1nnc(-c2cc(C(F)(F)F)ccn2)n1C [Compound A9, 6-ethylsulfonyl-1-methyl-5-[4-methyl-5-[4-(trifluoromethyl)-2-pyridyl]-1,2,4-triazol-3-yl]triazolo[4,5-b]pyridine] | ≥ 80 | ≥ 80 |  | ≥ 80 | ≥ 80 | ≥ 80 | ≥ 80
7 |  | CCS(=O)(=O)c1cc2nnn(C)c2nc1-c1nnc(-c2cc(C(F)(F)F)ccn2)n1C [Compound A10, 6-ethylsulfonyl-3-methyl-5-[4-methyl-5-[4-(trifluoromethyl)-2-pyridyl]-1,2,4-triazol-3-yl]triazolo[4,5-b]pyridine] | ≥ 80 | ≥ 80 | ≥ 80 | ≥ 80 | ≥ 80 |  | ≥ 80
8 | 176 to 178 | CCS(=O)(=O)c1cc2c(nnn2COC)nc1-c1nnc(-c2cc(C(F)(F)F)ccn2)n1C [Compound A11, 6-ethylsulfonyl-1-(methoxymethyl)-5-[4-methyl-5-[4-(trifluoromethyl)-2-pyridyl]-1,2,4-triazol-3-yl]triazolo[4,5-b]pyridine] |  |  |  |  |  |  | 
9 | 303 to 305 | CCS(=O)(=O)c1cc2[nH]nnc2nc1-c1nnc(-c2cc(C(F)(F)F)ccn2)n1C [Compound A12, 6-ethylsulfonyl-5-[4-methyl-5-[4-(trifluoromethyl)-2-pyridyl]-1,2,4-triazol-3-yl]-1H-triazolo[4,5-b]pyridine] |  |  |  |  |  |  | 
10 |  | CCn1nnc2nc(-c3nnc(-c4cc(C(F)(F)F)ccn4)n3C)c(S(=O)(=O)CC)cc21 [Compound A13, 1-ethyl-6-ethylsulfonyl-5-[4-methyl-5-[4-(trifluoromethyl)-2-pyridyl]-1,2,4-triazol-3-yl]triazolo[4,5-b]pyridine] |  | ≥ 80 | ≥ 80 | ≥ 80 |  | ≥ 80 | 
11 |  | CCS(=O)(=O)c1cc2c(nnn2CCF)nc1-c1nnc(-c2cc(C(F)(F)F)ccn2)n1C [Compound A14, 6-ethylsulfonyl-1-(2-fluoroethyl)-5-[4-methyl-5-[4-(trifluoromethyl)-2-pyridyl]-1,2,4-triazol-3-yl]triazolo[4,5-b]pyridine] |  | ≥ 80 | ≥ 80 | ≥ 80 |  | ≥ 80 | 
12 |  | CCS(=O)(=O)c1cc2nnn(CCF)c2nc1-c1nnc(-c2cc(C(F)(F)F)ccn2)n1C [Compound A15, 6-ethylsulfonyl-3-(2-fluoroethyl)-5-[4-methyl-5-[4-(trifluoromethyl)-2-pyridyl]-1,2,4-triazol-3-yl]triazolo[4,5-b]pyridine] |  |  | ≥ 80 |  |  |  | 
13 | 198 to 200 | CCS(=O)(=O)c1cc2nnn(COC)c2nc1-c1nnc(-c2cc(C(F)(F)F)ccn2)n1C [Compound A16, 6-ethylsulfonyl-3-(methoxymethyl)-5-[4-methyl-5-[4-(trifluoromethyl)-2-pyridyl]-1,2,4-triazol-3-yl]triazolo[4,5-b]pyridine] |  |  |  |  |  |  | 
14 |  | CCS(=O)(=O)c1cc2nn(COC)nc2nc1-c1nnc(-c2cc(C(F)(F)F)ccn2)n1C [Compound A17, 6-ethylsulfonyl-2-(methoxymethyl)-5-[4-methyl-5-[4-(trifluoromethyl)-2-pyridyl]-1,2,4-triazol-3-yl]triazolo[4,5-b]pyridine] |  |  | ≥ 80 |  |  |  | 
15 |  | CCS(=O)(=O)c1cc2nn(C)nc2nc1-c1nnc(-c2cc(C(F)(F)F)ccn2)n1C [Compound A18, 6-ethylsulfonyl-2-methyl-5-[4-methyl-5-[4-(trifluoromethyl)-2-pyridyl]-1,2,4-triazol-3-yl]triazolo[4,5-b]pyridine] |  | ≥ 80 | ≥ 80 |  |  | ≥ 80 | 
16 |  | CCS(=O)(=O)c1cc2c(nc1-c1nnc(-c3cc(C(F)(F)F)ccn3)n1C)CC(C)(C)O2 [Compound A19, 6-ethylsulfonyl-2,2-dimethyl-5-[4-methyl-5-[4-(trifluoromethyl)-2-pyridyl]-1,2,4-triazol-3-yl]-3H-furo[3,2-b]pyridine] |  |  |  | ≥ 80 | ≥ 80 |  | 
17 |  | CCS(=O)(=O)c1cc2c(nc1-c1nnc(-c3cc(C(F)(F)F)ncn3)n1C)CC(C)(C)O2 [Compound A20, 6-ethylsulfonyl-2,2-dimethyl-5-[4-methyl-5-[6-(trifluoromethyl)pyrimidin-4-yl]-1,2,4-triazol-3-yl]-3H-furo[3,2-b]pyridine] | ≥ 80 |  | ≥ 80 |  | ≥ 80 | ≥ 80 | 
